Results published in ChEMBL document CHEMBL1201862, “PubChem BioAssay data set” (2004).
Calls of active or inactive are those of the source.

What was measured:
[1] = nonselective inhibitors of cellular cAMP signaling, dose response, counter-screen for MC4R biased antagonist project, cell-based, TR-FRET cAMP detection (AID 602305); type: functional;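 further: U2OS cells stimulated with forskolin near its EC80 as the cAMP inducer; potency is for inhibition of forskolin-stimulated cAMP signaling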
Melanocortin receptor 4 = Melanocortin receptor 4 (Homo sapiens, UniProt P32245); assay: MC4R antagonist potency on cAMP, dose response, cell-based, TR-FRET, biased antagonists (AID 602298); type: functional;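 further: antagonist potency against agonist-stimulated cAMP production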
[2] = biological target: Melanin-concentrating hormone receptor 1 (Homo sapiens, UniProt Q99705); assay: Late-stage fluorescence-based counterscreen for antagonists of the G-protein coupled receptor 7 (GPR7): cell-based dose response assay to identify antagonists of the melanin-concentrating hormone receptor 1 (MCHR1) Set 5.; type: functional
[3] = biological target: Neuropeptides B/W receptor type 1 (Homo sapiens, UniProt P48145); assay: GPR7 antagonist potency, late-stage follow-up, cell-based, fluorescence, dose response, set 5 (AID 588566); type: functional
[4] = Late-stage results from the probe development effort to identify antagonists of the G-protein coupled receptor 7 (GPR7): luminescence-based cell-based dose response counterscreen assay to determine cytotoxicity of antagonist compounds Set 3.; type: functional
[5] = microbe, parasite or virus in culture; type: functional; conditions: Mycobacterium tuberculosis
[6] = cytotoxicity toward NIH3T3 fibroblasts, dose response, counter-screen, cell-based, ATP luminescence, mouse fibroblasts (AID 2010); type: functional;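 further: cells exposed to compound for about 90 hours before reading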
[7] = inhibitors of intracellular T. cruzi replication, confirmation, NIH3T3 host cells, beta-gal luminescence (AID 2044); type: functional, cell-based;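 further: intracellular parasites grown in NIH/3T3 mouse fibroblasts as host cells; luminescent beta-galactosidase reporter signal from transgenic T. cruzi replicating inside host cells; inhibitors lower the luminescence signal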
[8] = biological target: T1, High affinity choline transporter 1 (Homo sapiens, UniProt Q9GZV3); assay: CHT activators, dose response, cell-based, 10-point CRC, membrane potential dye (AID 602376); type: functional
T1 sequence (Q9GZV3 whole entry): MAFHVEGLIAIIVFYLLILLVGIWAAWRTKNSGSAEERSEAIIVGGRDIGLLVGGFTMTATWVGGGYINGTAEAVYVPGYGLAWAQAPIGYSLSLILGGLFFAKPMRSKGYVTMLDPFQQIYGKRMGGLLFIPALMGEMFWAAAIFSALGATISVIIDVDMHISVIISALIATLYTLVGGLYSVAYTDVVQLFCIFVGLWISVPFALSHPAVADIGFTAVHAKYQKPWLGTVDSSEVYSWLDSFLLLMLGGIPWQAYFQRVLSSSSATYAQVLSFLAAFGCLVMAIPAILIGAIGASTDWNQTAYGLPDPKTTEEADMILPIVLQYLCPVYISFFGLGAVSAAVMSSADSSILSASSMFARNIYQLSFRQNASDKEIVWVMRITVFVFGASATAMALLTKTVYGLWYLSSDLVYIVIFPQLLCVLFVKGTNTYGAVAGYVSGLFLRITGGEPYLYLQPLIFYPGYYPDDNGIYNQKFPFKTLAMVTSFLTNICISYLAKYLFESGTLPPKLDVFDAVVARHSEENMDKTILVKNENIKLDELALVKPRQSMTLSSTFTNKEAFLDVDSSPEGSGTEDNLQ

[9] = biological target: MAP kinase-activated protein kinase 3 (Homo sapiens, UniProt Q16644); type: functional;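 further: value comes from a kinome-wide profiling panel in which MAPKAPK3 is one of the panel members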
[10] = biological target: G protein-coupled receptor kinase 5 (Homo sapiens, UniProt P34947); assay: Navigating the Kinome. Panel member name: GPRK5; type: functional
[11] = biological target: Protein kinase C gamma type (Homo sapiens, UniProt P05129); type: functional
[12] = biological target: Protein kinase C zeta type (Homo sapiens, UniProt Q05513); type: functional;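 further: measured as one member of a broad kinase profiling panel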
Sequence of Protein kinase C zeta type (Q05513 whole entry): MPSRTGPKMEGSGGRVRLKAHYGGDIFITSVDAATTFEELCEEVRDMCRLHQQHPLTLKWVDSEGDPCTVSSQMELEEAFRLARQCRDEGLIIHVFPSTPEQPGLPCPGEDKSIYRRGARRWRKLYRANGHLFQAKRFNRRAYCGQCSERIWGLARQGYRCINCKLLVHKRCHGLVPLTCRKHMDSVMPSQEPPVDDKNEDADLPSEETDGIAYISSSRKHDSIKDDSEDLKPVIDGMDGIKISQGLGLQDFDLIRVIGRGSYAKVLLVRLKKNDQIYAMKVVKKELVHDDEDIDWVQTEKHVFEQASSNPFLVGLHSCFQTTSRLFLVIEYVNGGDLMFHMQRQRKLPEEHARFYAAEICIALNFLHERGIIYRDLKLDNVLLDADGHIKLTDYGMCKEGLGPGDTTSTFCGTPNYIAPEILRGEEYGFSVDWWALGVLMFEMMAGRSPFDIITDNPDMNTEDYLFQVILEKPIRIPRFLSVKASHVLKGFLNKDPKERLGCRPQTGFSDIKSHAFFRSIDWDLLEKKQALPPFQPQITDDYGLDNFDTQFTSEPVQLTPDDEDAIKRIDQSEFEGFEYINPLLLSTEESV

Sequence of G protein-coupled receptor kinase 5 (P34947 whole entry): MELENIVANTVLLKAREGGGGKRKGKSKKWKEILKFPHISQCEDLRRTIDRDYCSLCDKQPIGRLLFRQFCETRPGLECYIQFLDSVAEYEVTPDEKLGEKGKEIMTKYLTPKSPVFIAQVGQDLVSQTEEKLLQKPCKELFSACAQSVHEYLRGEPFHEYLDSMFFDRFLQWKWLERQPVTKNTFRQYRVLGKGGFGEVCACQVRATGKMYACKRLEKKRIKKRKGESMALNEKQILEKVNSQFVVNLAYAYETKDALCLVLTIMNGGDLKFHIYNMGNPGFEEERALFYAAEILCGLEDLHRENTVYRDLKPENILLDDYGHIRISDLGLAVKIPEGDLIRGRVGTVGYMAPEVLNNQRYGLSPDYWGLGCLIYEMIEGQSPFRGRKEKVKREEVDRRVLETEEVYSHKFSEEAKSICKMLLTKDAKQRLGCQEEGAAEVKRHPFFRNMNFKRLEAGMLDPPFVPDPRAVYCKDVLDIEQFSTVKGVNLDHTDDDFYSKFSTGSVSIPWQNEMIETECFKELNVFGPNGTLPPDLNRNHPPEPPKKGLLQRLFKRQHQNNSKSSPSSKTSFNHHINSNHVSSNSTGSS
Sequence of Neuropeptides B/W receptor type 1 (P48145 whole entry): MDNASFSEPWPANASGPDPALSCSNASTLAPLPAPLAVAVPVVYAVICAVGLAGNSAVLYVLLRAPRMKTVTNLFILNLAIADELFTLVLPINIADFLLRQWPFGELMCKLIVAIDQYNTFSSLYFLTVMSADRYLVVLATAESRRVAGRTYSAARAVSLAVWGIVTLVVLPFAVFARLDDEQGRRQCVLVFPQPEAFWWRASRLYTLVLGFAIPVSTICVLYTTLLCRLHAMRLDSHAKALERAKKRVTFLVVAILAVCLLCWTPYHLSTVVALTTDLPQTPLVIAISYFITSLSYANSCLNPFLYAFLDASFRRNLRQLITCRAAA
Sequence of MAP kinase-activated protein kinase 3 (Q16644 whole entry): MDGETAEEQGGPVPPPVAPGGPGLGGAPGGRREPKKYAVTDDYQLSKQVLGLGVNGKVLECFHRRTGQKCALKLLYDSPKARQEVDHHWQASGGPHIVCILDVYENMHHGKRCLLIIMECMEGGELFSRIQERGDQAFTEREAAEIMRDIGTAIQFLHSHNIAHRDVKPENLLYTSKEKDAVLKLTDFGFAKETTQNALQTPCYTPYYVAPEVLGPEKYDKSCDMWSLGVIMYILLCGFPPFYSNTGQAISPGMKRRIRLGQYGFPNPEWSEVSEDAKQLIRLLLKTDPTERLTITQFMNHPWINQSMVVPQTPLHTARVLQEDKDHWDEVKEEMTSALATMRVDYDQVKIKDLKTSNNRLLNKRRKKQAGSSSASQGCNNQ
Sequence of Melanocortin receptor 4 (P32245 whole entry): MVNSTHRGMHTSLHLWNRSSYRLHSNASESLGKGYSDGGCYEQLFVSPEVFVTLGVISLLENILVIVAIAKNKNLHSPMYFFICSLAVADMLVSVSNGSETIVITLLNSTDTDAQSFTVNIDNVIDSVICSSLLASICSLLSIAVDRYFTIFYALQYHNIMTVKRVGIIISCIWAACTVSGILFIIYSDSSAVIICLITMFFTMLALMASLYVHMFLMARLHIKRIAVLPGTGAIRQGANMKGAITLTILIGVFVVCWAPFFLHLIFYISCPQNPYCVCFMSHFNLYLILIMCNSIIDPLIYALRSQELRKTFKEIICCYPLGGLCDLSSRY
Sequence of Melanin-concentrating hormone receptor 1 (Q99705 whole entry): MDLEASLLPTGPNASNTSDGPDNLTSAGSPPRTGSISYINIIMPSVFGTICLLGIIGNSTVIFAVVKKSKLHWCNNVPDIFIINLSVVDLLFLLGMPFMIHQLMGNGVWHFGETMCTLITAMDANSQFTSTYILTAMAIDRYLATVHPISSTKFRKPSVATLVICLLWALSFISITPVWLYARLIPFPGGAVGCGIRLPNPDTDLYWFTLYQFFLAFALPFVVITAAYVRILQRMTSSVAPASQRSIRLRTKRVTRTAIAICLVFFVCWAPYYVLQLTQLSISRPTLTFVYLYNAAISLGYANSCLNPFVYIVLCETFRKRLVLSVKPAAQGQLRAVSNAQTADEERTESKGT

CC(=O)Oc1ccc2nc(-c3ccco3)oc(=O)c2c1
IC50 [1]: > 64.6 µM (inactive)
IC50 (Melanocortin receptor 4): > 64.6 µM (inactive)

CS(=O)(=O)c1ccc(Oc2c(Cl)cnn(Cc3cccc4ccccc34)c2=O)cc1
IC50 [2]: 2.46 µM (active)
IC50 [3]: 1.13 µM (active)

COc1ccc(Oc2c(Cl)cnn(C3c4ccccc4-c4ccccc43)c2=O)cc1
CC50 [4]: > 20 µM (inactive)

Cc1ccc(-n2c(C)cc(/C=N/NC(N)=S)c2C)cc1
CC50 [5]: > 40 µM (active)
EC50 [6]: > 60 µM (inconclusive)
EC50 [7]: 0.315 µM (active)
EC50 [8]: 9.06 µM (active)

CCN(CCO)CCCOc1ccc2c(Nc3cc(CC(=O)Nc4cccc(F)c4)[nH]n3)ncnc2c1 [DEFOSBARASERTIB]
Ki [9]: > 10 µM (inactive)
Ki [10]: > 3.98 µM (inactive)
Ki [11]: > 7.94 µM (inactive)
Ki [12]: > 7.94 µM (inactive)
